For 41 molecules, IC50 results are on record in patent US20250025443A1, “COMPOUNDS AND METHODS FOR TREATING CORONA VIRUSES” (CLEAR CREEK BIO, INC., priority 2021, published 2025).

Molecules are shown by their SMILES. A value given as a limit tells only on which side of the number the result lay.

In this experiment the target is SARS-CoV-2 Papain-Like Protease (PLpro) (Severe acute respiratory syndrome coronavirus 2 (2019-nCoV) (SARS-CoV-2), UniProt P0DTD1). Put plainly: biochemical. Conditions: SARS-CoV-2 PLpro enzymatic fluorescence assay; read-out: PLpro IC50.
As a reminder, the IC50 is the concentration that gives 50% inhibition. For the molecule `Cc1cc2[nH]ccc2cc1C(=O)NC1(c2cccc3ccccc23)CC1` [Compound 223, 6-Methyl-N-(1-(naphthalen-1-yl)cyclopropyl)-1H-indole-5-carboxamide], the IC50 was 100 to 1000 nM.

As to `CON(C)C(=O)c1cc2cc(C)c(C(=O)NC3(c4cccc5ccccc45)CC3)cc2[nH]1` [Compound 225], the half-inhibitory concentration (IC50) lay in the range of 100 to 1000 nM.

Regarding `Cc1cc2cc(-c3ccccc3)[nH]c2cc1C(=O)NC1(c2cccc3ccccc23)CC1` [Compound 226, 5-Methyl-N-(1-(naphthalen-1-yl)cyclopropyl)-2-phenyl-1H-indole-6-carboxamide], the IC50 was more than 5000 nM.

In the case of `Cc1cc2c(cc1C(=O)NC1(c3cccc4ccccc34)CC1)NCCC2` [Compound 227, 6-Methyl-N-(1-(naphthalen-1-yl)cyclopropyl)-1,2,3,4-tetrahydroquinoline-7-carboxamide], the IC50 was 100 to 1000 nM.

In the case of `Cc1cc2cc(CNCc3ccccc3)[nH]c2cc1C(=O)NC1(c2cccc3ccccc23)CC1` [Compound 229, 2-((Benzylamino)methyl)-5-methyl-N-(1-(naphthalen-1-yl)cyclopropyl)-1H-indole-6-carboxamide], the IC50 is less than 100 nM.

`CNCC1Cc2cc(C)c(C(=O)NC3(c4cccc5ccccc45)CC3)cc2N1` (centres unmarked) [Compound 231, 5-Methyl-2-((methylamino)methyl)-N-(1-(naphthalen-1-yl)cyclopropyl)indoline-6-carboxamide]: the IC50 is less than 100 nM.

With `Cc1cc2cc(CN)[nH]c2cc1C(=O)NC1(c2cccc(Br)c2)CC1` [Compound 232, 2-(Aminomethyl)-N-(1-(3-bromophenyl)cyclopropyl)-5-methyl-1H-indole-6-carboxamide], the half-inhibitory concentration (IC50) lay in the range of 1000 to 5000 nM.

For the molecule `CNCCOc1ccc(C)c(C(=O)NC2(c3cccc4ccccc34)CC2)c1` [Compound 233, 2-Methyl-5-(2-(methylamino)ethoxy)-N-(1-(naphthalen-1-yl)cyclopropyl)benzamide], the IC50 is less than 100 nM.

As to `Cc1cc2cc(-c3ccccn3)[nH]c2cc1C(=O)NC1(c2cccc3ccccc23)CC1` [Compound 234, 5-Methyl-N-(1-(naphthalen-1-yl)cyclopropyl)-2-(pyridin-2-yl)-1H-indole-6-carboxamide], the IC50 was in the range of 100 to 1000 nM.

As to `Cc1cc2cc(CN)oc2cc1C(=O)NC1(c2cccc3ccccc23)CC1` [Compound 236], the IC50 lay in the range of 100 to 1000 nM.

On to `Cc1cc2c(cc1C(=O)NC1(c3cccc4ccccc34)CC1)n(C)c(=O)n2C` [Compound 237, 1,3,6-Trimethyl-N-(1-(naphthalen-1-yl)cyclopropyl)-2-oxo-2,3-dihydro-1H-benzo[d]imidazole-5-carboxamide], for which the IC50 was in the range of 1000 to 5000 nM.

For the molecule `Cc1cc2[nH]c(=O)[nH]c2cc1C(=O)NC1(c2cccc3ccccc23)CC1` [Compound 238, 6-Methyl-N-(1-(naphthalen-1-yl)cyclopropyl)-2-oxo-2,3-dihydro-1H-benzo[d]imidazole-5-carboxamide], the IC50 lay within 100 to 1000 nM.

With `Cc1cc2ccn(CC3CNC3)c2cc1C(=O)NC1(c2cccc3ccccc23)CC1` [Compound 239, 1-(Azetidin-3-ylmethyl)-5-methyl-N-(1-(naphthalen-1-yl)cyclopropyl)-1H-indole-6-carboxamide], the IC50 was less than 100 nM.

Take `COCc1cc2cc(C)c(C(=O)NC3(c4cccc5ccccc45)CC3)cc2[nH]1` [Compound 240, 2-(Methoxymethyl)-5-methyl-N-(1-(naphthalen-1-yl)cyclopropyl)-1H-indole-6-carboxamide]: the IC50 was in the range of 100 to 1000 nM.

`Cc1cc2cc(CN)[nH]c2cc1C(=O)NCc1cccc2ccccc12` [Compound 241, 2-(Aminomethyl)-5-methyl-N-(naphthalen-1-ylmethyl)-1H-indole-6-carboxamide]: the 50% inhibitory concentration (IC50) was more than 5000 nM.

Take `Cc1ccc(N)cc1C(=O)NS(=O)(=O)c1cccc2ccccc12` [Compound 242, 5-Amino-2-methyl-N-(naphthalen-1-ylsulfonyl)benzamide]: the IC50 is more than 5000 nM.

Regarding `Cc1cc2c(cc1C(=O)NC1(c3cccc4ccccc34)CC1)NC(=O)C2(C)C` [Compound 243, 3,3,5-Trimethyl-N-(1-(naphthalen-1-yl)cyclopropyl)-2-oxoindoline-6-carboxamide], the IC50 lay within 1000 to 5000 nM.

As to `Cc1cc2cc(CN)[nH]c2cc1C(=O)NC1(c2ccc(-c3ccccc3)cc2)CC1` [Compound 244, N-(1-([1,1′-Biphenyl]-4-yl)cyclopropyl)-2-(aminomethyl)-5-methyl-1H-indole-6-carboxamide], the IC50 is more than 5000 nM.

Turning to `Cc1cc2sc(CN)nc2cc1C(=O)NC1(c2cccc3ccccc23)CC1` [Compound 245, 2-(Aminomethyl)-6-methyl-N-(1-(naphthalen-1-yl)cyclopropyl)benzo[d]thiazole-5-carboxamide], the IC50 was less than 100 nM.

For the molecule `Cc1cc2cc(CN)[nH]c2cc1C(=O)NC1(c2ccccc2)CC1` [Compound 246, 2-(Aminomethyl)-5-methyl-N-(1-phenylcyclopropyl)-1H-indole-6-carboxamide], the IC50 is more than 5000 nM.

In the case of `Cc1ccc(OCCNCC(F)(F)F)cc1C(=O)NC1(c2cccc3ccccc23)CC1` [Compound 247, 2-Methyl-N-(1-(naphthalen-1-yl)cyclopropyl)-5-(2-((2,2,2-trifluoroethyl)amino)ethoxy)benzamide], the IC50 was 100 to 1000 nM.

Regarding `Cc1cc2cc(CN)[nH]c2cc1C(=O)NC1(c2ccc3ccccc3c2)CC1` [Compound 248, 2-(Aminomethyl)-5-methyl-N-(1-(naphthalen-2-yl)cyclopropyl)-1H-indole-6-carboxamide], the IC50 was 1000 to 5000 nM.

On to `Cc1cc2c(cc1C(=O)NC1(c3cccc4ccccc34)CC1)NC(=O)C2` [Compound 249, 5-Methyl-N-(1-(naphthalen-1-yl)cyclopropyl)-2-oxoindoline-6-carboxamide], for which the IC50 was in the range of 100 to 1000 nM.

With `Cc1ccc(OCCN(C)C)cc1C(=O)NC1(c2ccccc2Br)CC1` [Compound 251, N-(1-(2-Bromophenyl)cyclopropyl)-5-(2-(dimethylamino)ethoxy)-2-methylbenzamide], the IC50 was in the range of 100 to 1000 nM.

For `Cc1ccc(OCCN(C)C)cc1C(=O)NC1(c2cccc(F)c2)CC1` [Compound 252, 5-(2-(Dimethylamino)ethoxy)-N-(1-(3-fluorophenyl)cyclopropyl)-2-methylbenzamide], the IC50 was more than 5000 nM.

`Cc1ccc(C2(NC(=O)c3cc(OCCN(C)C)ccc3C)CC2)cc1` [Compound 253, 5-(2-(Dimethylamino)ethoxy)-2-methyl-N-(1-(p-tolyl)cyclopropyl)benzamide]: the IC50 was more than 5000 nM.

For `Cc1ccc(OCCN2CCCCC2)cc1C(=O)NC1(c2cccc3ccccc23)CC1` [Compound 254, 2-Methyl-N-(1-(naphthalen-1-yl)cyclopropyl)-5-(2-(piperidin-1-yl)ethoxy)benzamide], the IC50 was less than 100 nM.

Take `Cc1cccc(C2(NC(=O)c3cc(OCCN(C)C)ccc3C)CC2)c1` [Compound 255, 5-(2-(Dimethylamino)ethoxy)-2-methyl-N-(1-(m-tolyl)cyclopropyl)benzamide]: the IC50 was more than 5000 nM.

On to `Cc1ccc(OCC2(N)CC2)cc1C(=O)NC1(c2cccc3ccccc23)CC1` [Compound 256], for which the IC50 was less than 100 nM.

For `Cc1ccc(C(N)=O)cc1C(=O)NC1(c2cccc3ccccc23)CC1` [Compound 257], the IC50 was 100 to 1000 nM.

Regarding `Cc1ccc(OCCN(C)C)cc1C(=O)NC1(c2ccc(Br)cc2)CC1` [Compound 258, N-(1-(4-Bromophenyl)cyclopropyl)-5-(2-(dimethylamino)ethoxy)-2-methylbenzamide], the IC50 is more than 5000 nM.

As for `Cc1ccc(OCCN(C)C)cc1C(=O)NC1(c2ccc(F)cc2)CC1` [Compound 259, 5-(2-(Dimethylamino)ethoxy)-N-(1-(4-fluorophenyl)cyclopropyl)-2-methylbenzamide], the IC50 is more than 5000 nM.

For the molecule `Cc1cc2cc(C3COCCN3)[nH]c2cc1C(=O)NC1(c2cccc3ccccc23)CC1` (centres unmarked) [Compound 260, 5-Methyl-2-(morpholin-3-yl)-N-(1-(naphthalen-1-yl)cyclopropyl)-1H-indole-6-carboxamide], the IC50 is 100 to 1000 nM.

For the molecule `Cc1ccc(OCCN(C)C)cc1C(=O)NC1(c2cccc(Br)c2)CC1` [Compound 261, N-(1-(3-Bromophenyl)cyclopropyl)-5-(2-(dimethylamino)ethoxy)-2-methylbenzamide], the IC50 was 1000 to 5000 nM.

`Cc1cc2c(cc1C(=O)NC1(c3cccc4ccccc34)CC1)NCC2(C)C` [Compound 262, 3,3,5-Trimethyl-N-(1-(naphthalen-1-yl)cyclopropyl)indoline-6-carboxamide]: the IC50 was 100 to 1000 nM.

In the case of `Cc1ccc(OCC2CCCN2)cc1C(=O)NC1(c2cccc3ccccc23)CC1` (centres unmarked) [Compound 263, 2-Methyl-N-(1-(naphthalen-1-yl)cyclopropyl)-5-(pyrrolidin-2-ylmethoxy)benzamide], the IC50 is less than 100 nM.

As for `Cc1ccc(OCCN(C)C)cc1C(=O)NC1(c2cccc(C3=CCCC3)c2)CC1` [Compound 264, N-(1-(3-(Cyclopent-1-en-1-yl)phenyl)cyclopropyl)-5-(2-(dimethylamino)ethoxy)-2-methylbenzamide], the IC50 was 1000 to 5000 nM.

Take `Cc1ccc(OC2CC(N)C2)cc1C(=O)NC1(c2cccc3ccccc23)CC1` (centres unmarked) [Compound 265, 5-(3-Aminocyclobutoxy)-2-methyl-N-(1-(naphthalen-1-yl)cyclopropyl)benzamide]: the IC50 lay within 100 to 1000 nM.

Consider `Cc1ccc(OCCN(C)C)cc1C(=O)NC1(c2ccccc2-c2ccncc2)CC1` [Compound 266, 5-(2-(Dimethylamino)ethoxy)-2-methyl-N-(1-(2-(pyridin-4-yl)phenyl)cyclopropyl)benzamide], for which the IC50 was more than 5000 nM.

Consider `Cc1ccc(OCCN(C)C)cc1C(=O)NC1(c2ccccc2-c2ccccc2)CC1` [Compound 267, N-(1-([1,1′-Biphenyl]-2-yl)cyclopropyl)-5-(2-(dimethylamino)ethoxy)-2-methylbenzamide], for which the IC50 is more than 5000 nM.

In the case of `Cc1ccc(OC2CCCNC2)cc1C(=O)NC1(c2cccc3ccccc23)CC1` (centres unmarked) [Compound 268, 2-Methyl-N-(1-(naphthalen-1-yl)cyclopropyl)-5-(piperidin-3-yloxy)benzamide], the IC50 was in the range of 100 to 1000 nM.
